Experimental data taken from patent publication US20060094702A1, “5-HT4 receptor antagonists” (SMITHKLINE BEECHAM P.L.C., priority 1993, published 2006).

Molecular target: T1, 5-HT4 receptor (Cavia porcellus, UniProt O70528)
T1 construct: Longitudinal muscle-myenteric plexus preparations, approximately 3 cm long, are obtained from the distal colon region; from tissue; host or cells: guinea-pig distal colon longitudinal muscle-myenteric plexus
Assay: Guinea pig colon 5-HT4 receptor antagonist activity (5-HT evoked contraction of longitudinal muscle-myenteric plexus)
Details: guinea-pig distal colon longitudinal muscle-myenteric plexus; contractions evoked by 5-HT; methiothepin 10^-7M and granisetron 10^-6M present; read-out: pIC50 (-log concentration of antagonist which reduces the contraction by 50%) (converted)
Procedure: 5-HT4 Receptor Antagonist Activity
Male guinea-pigs, weighing 250-400 g are used. Longitudinal muscle-myenteric plexus preparations, approximately 3 cm long, are obtained from the distal colon region. These are suspended under a 0.5 g load in isolated tissue baths containing Krebs solution bubbled with 5% CO2 in O2 and maintained at 37° C. In all experiments, the Krebs solution also contains methiothepin 10^-7M and granisetron 10^-6M to block effects at 5-HT1, 5-HT2 and 5-HT3 receptors.
After construction of a simple concentration-response curve with 5-HT, using 30 s contact times and a 15 min dosing cycle, a concentration of 5-HT is selected so as to obtain a contraction of the muscle approximately 40-70% maximum(10^-9M approx). The tissue is then alternately dosed every 15 min with this concentration of 5-HT and then with an approximately equi-effective concentration of the nicotine receptor stimulant, dimethylphenylpiperazinium (DMPP). After obtaining consistent responses to both 5-HT and DMPP, increasing concentrations of a putative 5-HT4 receptor antagonist are then added to the bathing solution. The effects of this compound are then determined as a percentage reduction of the contractions evoked by 5-HT or by DMPP. […] A compound which reduces the response to 5-HT but not to DMPP is believed to act as a 5-HT4 receptor antagonist.

T1 sequence (O70528 whole entry): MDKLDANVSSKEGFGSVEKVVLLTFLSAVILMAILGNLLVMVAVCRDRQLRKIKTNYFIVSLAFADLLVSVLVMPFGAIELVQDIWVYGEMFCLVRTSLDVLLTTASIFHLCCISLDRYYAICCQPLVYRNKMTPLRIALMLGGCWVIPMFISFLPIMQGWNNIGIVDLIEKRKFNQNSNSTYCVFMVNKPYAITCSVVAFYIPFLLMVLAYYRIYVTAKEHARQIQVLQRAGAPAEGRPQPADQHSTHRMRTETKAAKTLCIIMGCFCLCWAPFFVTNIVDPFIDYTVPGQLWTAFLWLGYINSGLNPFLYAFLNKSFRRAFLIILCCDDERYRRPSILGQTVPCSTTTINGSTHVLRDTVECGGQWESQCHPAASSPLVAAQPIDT

IC50: 0.158 µM
Compound: CCCCN1CCC(CCC(=O)c2cn(C)c3ccccc23)CC1 [Example 1, 1-(1-Methyl-1H-indol-3-yl)-3-(1-butylpiperidin-4-yl)propan-1-one]
